Assay results from patent US20260272868A1 (priority 2022, published 2026).
“And” between values parts separate entries of the source, which are not always exact repeats. Equal values may be shown once. Read-outs that look alike come from different tables or passages of the source.

What was measured:
[1] = DOPR pharmacokinetics after SC administration; conditions: mouse, in vivo
[2] = system: head twitch response (HTR); format: in vivo, mice
Procedure: Male C57BL/6 mice (~7-9 weeks old) were used in these studies. Mice were housed 2 per cage under standard temperature- and humidity-controlled laboratory conditions with a 12-hour light/dark cycle. Mice had free access to food and water.
Both compounds were dissolved in saline vehicle at a dose volume of 10 mL/kg. Doses were corrected for salt form so that the dose administered represented free base.
Mice were randomly assigned to 1 of 6 treatment groups consisting of 2 subcutaneous injections (see Table 1), which were administered according to the schedule in FIG. 1. […] Behavior was videotaped by a camera (GoPro Hero 9) mounted above the testing chambers. Recorded video was uploaded for analysis of head twitch behavior. Number of head twitch responses (HTRs) was recorded for each animal for each 2-min bin. For each treatment group, the mean number of HTRs in each 2- or 10-min bin, and across the whole 30-min recording period, were analyzed.

[3] = biological target: T1, 5-HT2A receptor (Mus musculus, UniProt P35363); test: Ex vivo occupancy of cortical 5-HT2A receptors by DOPR, [3H]MDL100,907 autoradiography; format: in vivo, mice; conditions: for receptor occupancy at 0.32 mg/kg / receptor occupancy at 1 mg/kg / receptor occupancy at 3.2 mg/kg / receptor occupancy at 32 mg/kg: mouse, sc
T1 construct: Coronal sections containing the frontal cortex were be cut (20 μm thick) using a cryostat; from tissue; host or cells: frontal cortex sections of male C57BL/6 mouse brain
Procedure: Mice had free access to food and water. Animals were randomly assigned to treatment groups.
Doses were calculated based on the HCl salt. MDL100,907 [methyl-^3H] was purchased from Novandi Chemistry. Ketanserin was purchased from Tocris (UK).
Mice were dosed with vehicle or DOPR (0.32, 1, 3.2, or 32 mg/kg, SC) and sacrificed at 15 or 60 minutes after dosing (n=5 per dose/time condition) by a rising CO2 concentration followed by cervical dislocation. Whole brains were removed, rinsed briefly with saline, and blot dried. A coronal cut was made at the level of the optic chiasm to produce an anterior brain block containing the frontal cortex (according to the Mouse Brain in Stereotaxic Coordinates, Paxinos and Franklin, second edition). The anterior brain block was then cut down the midline, both blocks were placed onto cork disks, covered with OCT embedding matrix (KMA-0100-00A, Cell Path), rapidly frozen in isopentane (cooled to −20/−30° C.) and stored at −20° C. for sectioning and ex vivo autoradiography. Coronal sections containing the frontal cortex were be cut (20 μm thick) using a cryostat and thaw mounted onto Superfrost plus slides and the slides were stored at −20° C. until the day of assay.
Slides containing brain sections were warmed to room temperature and sections were isolated using a DAKO pen and incubated at room temperature for 30 minutes in 200 μL of assay buffer containing 0.2 nM [^3H]MDL100,907 (total binding) or 0.2 nM [^3H]MDL100,907 and […] ketanserin (non-specific binding). Solutions were removed from the sections by aspiration and the slides were washed for two consecutive 5-minute periods in ice-cold wash buffer. The slides were then rinsed briefly in ice-cold distilled water to remove buffer salts and allowed to air dry. The assay and wash buffer consisted of 50 mM Tris, pH 7.4. The binding assay was performed on two separate occasions.
The waxy residue of the DAKO pen was removed with xylene to prevent sparks in the β-imager. Lint-free tissue and an air duster was used to remove any dust particles from the microscope slides. To make the slides conductive, copper foil tape was adhered to the free side of the microscope slides. The slides were placed in the β-imager and the levels of bound radioactivity in the sections were directly determined by counting the number of β-particles emerging from the delineated area using the M3 vision program (BioSpace). Data was collected from the brain sections over 16 hours and expressed in counts per minute per square millimetre (cpm/mm^2). A value for specific binding (cpm/mm^2) was generated by the subtraction of mean non-specific binding (cpm/mm^2) from mean total binding (cpm/mm^2) for each animal.

[4] = Human plasma pharmacokinetic parameters of trazodone collected from the literature; format: in vivo; conditions: mean of literature values
[5] = Plasma protein binding, rapid equilibrium dialysis, human plasma; format: in vitro ADME
Procedure: (§1) A 1 mM stock solution of trazadone was prepared in DMSO and diluted 200-fold in mouse or human plasma to yield a final concentration of 5 μM. The final DMSO concentration was 0.5%. Rapid equilibrium dialysis (RED) was performed with a RED device containing a dialysis membrane with a molecular weight cut-off of 8,000 Daltons. Each dialysis insert contains two chambers. The red chamber is for plasma while the white chamber is for buffer.
(§2) For each dialysis insert, aliquots (200 μL) of positive control or test compound at 5 μM (n=2) were separately added to the plasma chamber and 350 μL of phosphate buffered saline (pH 7.4) was added to the buffer chamber. After sealing the RED device with an adhesive film, dialysis was performed in an incubator at 37° C. with shaking at 300 RPM for 4 hours. To assess recovery and stability, 50 μL aliquots of positive control and test compound were added to 96-deep well plates and quenched with 400 μL acetonitrile (for 0 min), while comparator aliquots were incubated at 37° C. for 4 hours along with the RED device.
(§3) Following dialysis, an aliquot of 50 μL was removed from each well (both plasma and buffer side) and diluted with an equal volume of the opposite matrix (dialyzed with the other matrix) to nullify the matrix effect. Similarly, 50 μL of buffer was added to recovery and stability samples. An aliquot of 100 μL was submitted for LC-MS/MS analysis. […]

[6] = in vivo; conditions: male, C57BL/6, mouse
Procedure: Male C57BL/6 mice, aged 8-12 weeks, were used in these studies. Mice were housed 4 per cage under standard temperature- and humidity-controlled laboratory conditions with a 12-hour light/dark cycle. Mice had free access to food and water but were fasted from 4 h prior to and until 2 h after dosing. Animals were randomly assigned to treatment groups.
Doses were corrected for salt form so that the dose administered represented free base.
Immediately after blood collection, plasma was harvested by centrifugation at 4,000 rpm for 10 min at 4° C. and samples were stored at −70±10° C. until bioanalysis. Following blood collection, animals were immediately sacrificed, the abdominal vena-cava was cut open, the whole body was perfused from the heart using 10 mL of normal saline, and brain samples were collected from all animals. After isolation, brain samples were rinsed three times in ice-cold normal saline (for 5-10 seconds/rinse using ~5-10 mL normal saline in a disposable petri dish for each rinse) and dried on blotting paper. Brain samples were homogenized using ice-cold phosphate-buffered saline (pH 7.4). Total homogenate volume was three times the tissue weight. All homogenates were stored at −70±10° C. until bioanalysis. For bioanalysis, 20 μL aliquots of plasma/brain study samples or spiked plasma/brain calibration standards were added to individual pre-labeled micro-centrifuge tubes followed by 200 μL of an internal standard solution (cetirizine, 50 ng/mL in acetonitrile) except for blanks, where 200 μL of acetonitrile was added. Samples were vortexed for 5 minutes and then centrifuged for 10 minutes at 4,000 rpm at 4° C. Following centrifugation, 200 μL of each clear supernatant was transferred to a 96-well plate and analyzed with a fit-for-purpose LC-MS/MS method, with authentic samples of each analyte used for calibration and identification.

[7] = cited from earlier work
[8] = Plasma protein binding, rapid equilibrium dialysis, mouse plasma; format: in vitro ADME
Procedure: as §1, §2, §3

T1 sequence (P35363 whole entry): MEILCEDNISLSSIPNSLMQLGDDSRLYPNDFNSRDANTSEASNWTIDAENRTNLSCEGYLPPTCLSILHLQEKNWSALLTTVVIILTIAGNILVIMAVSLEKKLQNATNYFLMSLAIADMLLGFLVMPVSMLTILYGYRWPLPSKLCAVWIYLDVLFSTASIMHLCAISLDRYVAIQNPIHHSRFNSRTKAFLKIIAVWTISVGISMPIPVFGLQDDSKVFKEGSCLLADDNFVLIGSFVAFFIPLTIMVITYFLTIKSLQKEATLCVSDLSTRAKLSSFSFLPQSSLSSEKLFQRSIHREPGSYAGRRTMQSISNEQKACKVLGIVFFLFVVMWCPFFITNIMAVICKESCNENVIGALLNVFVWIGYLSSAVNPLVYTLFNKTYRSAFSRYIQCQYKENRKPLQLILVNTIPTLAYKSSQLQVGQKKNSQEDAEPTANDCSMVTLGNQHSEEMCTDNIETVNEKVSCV

In the case of `CCCc1cc(OC)c(CC(C)N)cc1OC` (centres unmarked) [DOPR, 2,5-dimethoxy-4-propylamphetamine], the Tmax [1] is reported as 1 h, the “dose maximally efficacious for induction of HTR” value ([2]; SC, higher and lower doses result in fewer HTRs) is reported as 3.2 mg/kg and the “Specific Binding (% of Vehicle)” value ([3]; DOPR 0.32 mg/kg SC, 15 min) is reported as 105 % of Vehicle. For the same compound, the “Specific binding, Mean (SEM)” value ([3]; DOPR 0.32 mg/kg SC, 15 min) was 1.39 (0.06) cpm/mm^2, the “Specific Binding (% of Vehicle)” value ([3]; DOPR 0.32 mg/kg SC, 60 min) was 93 % of Vehicle and the “Specific binding, Mean (SEM)” value ([3]; DOPR 0.32 mg/kg SC, 60 min) was 1.23 (0.08) cpm/mm^2. The “Specific Binding (% of Vehicle)” value ([3]; DOPR 1 mg/kg SC, 15 min) was 104 % of Vehicle, the “Specific binding, Mean (SEM)” value ([3]; DOPR 1 mg/kg SC, 15 min) was 1.38 (0.06) cpm/mm^2 and the “Specific Binding (% of Vehicle)” value ([3]; DOPR 1 mg/kg SC, 60 min) was 67 % of Vehicle. The “Specific binding, Mean (SEM)” value ([3]; DOPR 1 mg/kg SC, 60 min) was 0.88 (0.07) cpm/mm^2, the “Specific Binding (% of Vehicle)” value ([3]; DOPR 3.2 mg/kg SC, 15 min) was 71 % of Vehicle and the “Specific binding, Mean (SEM)” value ([3]; DOPR 3.2 mg/kg SC, 15 min) was 0.93 (0.09) cpm/mm^2. For the same compound, the “Specific Binding (% of Vehicle)” value ([3]; DOPR 3.2 mg/kg SC, 60 min) was 43 % of Vehicle, the “Specific binding, Mean (SEM)” value ([3]; DOPR 3.2 mg/kg SC, 60 min) was 0.57 (0.05) cpm/mm^2 and the “Specific Binding (% of Vehicle)” value ([3]; DOPR 32 mg/kg SC, 15 min) was 18 % of Vehicle. For the same compound, the “Specific binding, Mean (SEM)” value ([3]; DOPR 32 mg/kg SC, 15 min) was 0.23 (0.04) cpm/mm^2, the “Specific Binding (% of Vehicle)” value ([3]; DOPR 32 mg/kg SC, 60 min) was 8 % of Vehicle and the “Specific binding, Mean (SEM)” value ([3]; DOPR 32 mg/kg SC, 60 min) was 0.10 (0.01) cpm/mm^2. For the same compound, the “dose calculated to occupy 50% of 5-HT2A receptors” value ([3]; SC, mice) was 2.08 mg/kg, the receptor occupancy at 0.32 mg/kg ([3]; DOPR 0.32 mg/kg SC, 15 min) was -5% and the receptor occupancy at 0.32 mg/kg ([3]; DOPR 0.32 mg/kg SC, 60 min) was 7%. The receptor occupancy at 1 mg/kg ([3]; DOPR 1 mg/kg SC, 15 min) was -4%, the receptor occupancy at 1 mg/kg ([3]; DOPR 1 mg/kg SC, 60 min) was 33% and the receptor occupancy at 3.2 mg/kg ([3]; DOPR 3.2 mg/kg SC, 15 min) was 29%. The receptor occupancy at 3.2 mg/kg ([3]; DOPR 3.2 mg/kg SC, 60 min) was 57%, the receptor occupancy at 32 mg/kg ([3]; DOPR 32 mg/kg SC, 15 min) was 82% and the receptor occupancy at 32 mg/kg ([3]; DOPR 32 mg/kg SC, 60 min) was 92%.

For `O=c1n(CCCN2CCN(c3cccc(Cl)c3)CC2)nc2ccccn12` [trazodone], the “Cmax (ng/mL per mg dosed)” value ([4]; PO) was 17.2 ng/mL per mg dosed, the half-life ([4]; human, plasma, IV) was 6.3 h and the Tmax ([4]; human, plasma, PO) was 1.5 h. For the same compound, the half-life ([4]; human, plasma, PO) was 9.1 h, the “bound fraction in plasma” value ([5]; 5 μM, 4 hours, 37° C.) was 90.2% and the fraction unbound at 4 h, 5 μM ([5]; pH 7.4, 37° C.) was 0.098. For the same compound, the “HTR reversal quantified in 10-minute bins” value ([2]; 0-10, 10-20, 20-30 min post trazodone, even at the lowest dose) was “rapid and robust HTR reversal effect”, the “onset of reversal of DOPR HTR” value ([2]; all trazodone doses tested, SC, 45 min after DOPR 3.2 mg/kg SC) was no more than 2 min and the “persistence of HTR reversal effect” value ([2]; all trazodone doses tested, limited by recording period) was no less than 30 min. The “reversal of DOPR-induced HTR in the 20-30-minute time bin” value ([2]; lowest dose of trazodone (1 mg/kg SC)) was “full reversal”, the “minimum efficacious concentration (MEC) in plasma for reversal” value ([2]; mice, total plasma concentration 25 min after 1 mg/kg SC trazodone) was no more than 369 ng/mL and the “reversal of HTR induced by DOPR” value ([2]; trazodone 1, 1.8, 3.2 or 10 mg/kg SC 45 min after DOPR 3.2 mg/kg SC, 30-min recording, all doses incl. lowest) was “fully reversed”. The concentration at 5 min ([6]; 1 mg/kg) was 800 ng/mL and 700 ng/g, the concentration at 15 min ([6]; 1 mg/kg) was 504 ng/mL and 584 ng/g and the concentration at 25 min ([6]; 1 mg/kg) was 369 ng/mL and 255 ng/g. The concentration at 5 min ([6]; 3.2 mg/kg) was 1480 ng/mL and 1750 ng/g, the concentration at 15 min ([6]; 3.2 mg/kg) was 1350 ng/mL and 1600 ng/g and the concentration at 25 min ([6]; 3.2 mg/kg) was 1020 ng/mL and 674 ng/g. The concentration at 5 min ([6]; 10 mg/kg) was 3490 ng/mL and 7930 ng/g, the concentration at 15 min ([6]; 10 mg/kg) was 2870 ng/mL and 5100 ng/g and the concentration at 25 min ([6]; 10 mg/kg) was 1910 ng/mL and 3580 ng/g. For the same compound, the T1/2 ([7]; 25 mg IV, Greenblatt, 1987) was 5.3 h, the “Cmax (ng/mL per mg dosed)” value ([7]; 50 mg PC, Greenblatt, 1987) was 18.8 ng/mL per mg dosed and the T1/2 ([7]; 50 mg PC, Greenblatt, 1987) was 5.2 h. For the same compound, the Tmax ([7]; 50 mg PC, Greenblatt, 1987) was 1.02 h, the “Cmax (ng/mL per mg dosed)” value ([7]; 50 mg PO, Gammans, 1984) was 17.16 ng/mL per mg dosed and the T1/2 ([7]; 50 mg PO, Gammans, 1984) was 13.3 h. For the same compound, the Tmax ([7]; 50 mg PO, Gammans, 1984) was 0.9 h, the T1/2 ([7]; 90 mg IV, Nilsen, 1992) was 7.3 h and the “Cmax (ng/mL per mg dosed)” value ([7]; 100 mg PO, Bayer, 1983) was 16 ng/mL per mg dosed. The T1/2 ([7]; 100 mg PO, Bayer, 1983) was 6.0 h, the Tmax ([7]; 100 mg PO, Bayer, 1983) was 2 h and the “Cmax (ng/mL per mg dosed)” value ([7]; 100 mg PO, Kale, 2015) was 15.47 ng/mL per mg dosed. The T1/2 ([7]; 100 mg PO, Kale, 2015) was 13.1 h, the Tmax ([7]; 100 mg PO, Kale, 2015) was 2.25 h and the “Cmax (ng/mL per mg dosed)” value ([7]; 100 mg PO, Nilsen, 1992) was 18.8 ng/mL per mg dosed. For the same compound, the T1/2 ([7]; 100 mg PO, Nilsen, 1992) was 7.8 h, the Tmax ([7]; 100 mg PO, Nilsen, 1992) was 1.34 h and the half-life ([7]; human) was 6 to 12 h. The “bound fraction in plasma” value ([8]; 5 μM, 4 hours, 37° C.) was 94.4% and the fraction unbound at 4 h, 5 μM ([8]; pH 7.4, 37° C.) was 0.056.
